# Assay results: PubChem BioAssay (NCI)
#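 Briefly, cells in 96-well plates were exposed to five compound concentrations for 48 h, and endpoints were estimated by linear interpolation. Here, GI50 denotes the concentration required for 50% inhibition of growth. TGI: total growth inhibition.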
# Assays:
# Test in all cases: NCI tumour cell line growth inhibition, 48 h
# [1] = system: KM12 colon
# [2] = system: SK-MEL-28 melanoma
# [3] = system: CAKI-1 renal
# [4] = system: CCRF-CEM leukemia
# [5] = system: A549 NSCLC
# [6] = system: NCI-H226 lung
# [7] = system: K-562 leukemia
# [8] = system: HCT-116 colon
# [9] = system: A498 renal
# [10] = system: MALME-3M melanoma
# [11] = system: SK-MEL-5 melanoma
# [12] = system: NCI-H522 lung
# [13] = system: DU-145 prostate
# [14] = system: SW-620 colon
# [15] = system: M14 melanoma
# [16] = system: UO-31 renal
# [17] = system: HT29 colon
# [18] = system: UACC-62 melanoma
# [19] = system: HL-60(TB) leukemia
# [20] = system: SF-295 CNS
# [21] = system: SF-268 CNS
# [22] = system: MDA-MB-231 breast
# [23] = system: COLO 205 colon
# [24] = system: T-47D breast
# [25] = system: SNB-19 CNS
# [26] = system: SNB-75 CNS
# [27] = system: HCT-15 colon
# [28] = system: TK-10 renal
# [29] = system: UACC-257 melanoma
# [30] = system: SF-539 CNS
# [31] = system: U251 CNS
# [32] = system: NCI-H460 lung
# [33] = system: OVCAR-4 ovarian
# [34] = system: HCC-2998 colon
# [35] = system: MDA-MB-468 breast
# [36] = system: NCI/ADR-RES ovarian
# [37] = system: SK-MEL-2 melanoma
# [38] = system: EKVX NSCLC
# [39] = system: ACHN renal
# [40] = system: SR leukemia
# [41] = system: RPMI-8226 leukemia
# [42] = system: IGROV1 ovarian
# [43] = system: OVCAR-8 ovarian
# [44] = system: MOLT-4 leukemia
# [45] = system: RXF 393 renal
# [46] = system: OVCAR-3 ovarian
# [47] = system: HS 578T breast
# [48] = system: HOP-62 NSCLC
# [49] = system: SK-OV-3 ovarian
# [50] = system: BT-549 breast
# [51] = system: SN12C renal
# [52] = system: NCI-H23 lung
# [53] = system: OVCAR-5 ovarian
# [54] = system: LOX IMVI melanoma
# [55] = system: MCF7 breast
# [56] = system: 786-0 renal
# [57] = system: HOP-92 NSCLC
# [58] = system: MDA-MB-435
# [59] = system: PC-3 prostate
smiles,measurement,setting,value
O=C(Cn1c(-c2ccccc2)nc2ccccc21)N=Nc1c(O)[nH]c2ccc(Br)cc12,GI50,[1],14.8 µM
same,TGI,[1],52.9 µM
same,GI50,[2],17.8 µM
same,TGI,[2],36.7 µM
same,GI50,[3],11.8 µM
same,TGI,[3],25.7 µM
same,GI50,[4],34.8 µM
same,TGI,[4],> 100 µM
same,GI50,[5],14.7 µM
same,TGI,[5],34.8 µM
same,GI50,[6],11.1 µM
same,TGI,[6],28.3 µM
same,GI50,[7],9.48 µM
same,TGI,[7],> 100 µM
same,GI50,[8],18.2 µM
same,TGI,[8],45.8 µM
same,GI50,[9],16 µM
same,TGI,[9],31.1 µM
same,GI50,[10],12.3 µM
same,TGI,[10],27.1 µM
same,GI50,[11],13.9 µM
same,TGI,[11],30.9 µM
same,GI50,[12],7.31 µM
same,TGI,[12],22.4 µM
same,GI50,[13],19.6 µM
same,TGI,[13],42.3 µM
same,GI50,[14],18.1 µM
same,TGI,[14],52.9 µM
same,GI50,[15],18.8 µM
same,TGI,[15],52.3 µM
same,GI50,[16],10 µM
same,TGI,[16],26.8 µM
same,GI50,[17],14.3 µM
same,TGI,[17],30.4 µM
same,GI50,[18],12.1 µM
same,TGI,[18],25.9 µM
same,GI50,[19],25.5 µM
same,TGI,[19],> 100 µM
same,GI50,[20],12.7 µM
same,TGI,[20],28 µM
same,GI50,[21],16.2 µM
same,TGI,[21],38.3 µM
same,GI50,[22],12 µM
same,TGI,[22],27.9 µM
same,GI50,[23],18.9 µM
same,TGI,[23],46.2 µM
same,GI50,[24],11.5 µM
same,TGI,[24],33.8 µM
same,GI50,[25],17.3 µM
same,TGI,[25],40.8 µM
same,GI50,[26],9.46 µM
same,TGI,[26],23.6 µM
same,GI50,[27],12 µM
same,TGI,[27],38.9 µM
same,GI50,[28],21 µM
same,TGI,[28],40.3 µM
same,GI50,[29],15.2 µM
same,TGI,[29],31.7 µM
same,GI50,[30],14.4 µM
same,TGI,[30],29.7 µM
same,GI50,[31],16.2 µM
same,TGI,[31],31.7 µM
same,GI50,[32],16.8 µM
same,TGI,[32],35 µM
same,GI50,[33],15.9 µM
same,TGI,[33],36.5 µM
same,GI50,[34],14.8 µM
same,TGI,[34],31.3 µM
same,GI50,[35],2.54 µM
same,TGI,[35],9.55 µM
same,GI50,[36],15.4 µM
same,TGI,[36],33.8 µM
same,GI50,[37],17 µM
same,TGI,[37],42.9 µM
same,GI50,[38],11.3 µM
same,TGI,[38],34.1 µM
same,GI50,[39],15.6 µM
same,TGI,[39],34.1 µM
same,GI50,[40],6.04 µM
same,TGI,[40],> 100 µM
same,GI50,[41],35.6 µM
same,TGI,[41],> 100 µM
same,GI50,[42],12 µM
same,TGI,[42],29.7 µM
same,GI50,[43],14.4 µM
same,TGI,[43],31.1 µM
same,GI50,[44],17.6 µM
same,TGI,[44],> 100 µM
same,GI50,[45],10.3 µM
same,TGI,[45],23.9 µM
same,GI50,[46],14.3 µM
same,TGI,[46],30.3 µM
same,GI50,[47],14.9 µM
same,TGI,[47],47.3 µM
same,GI50,[48],14.6 µM
same,TGI,[48],33 µM
same,GI50,[49],16.6 µM
same,TGI,[49],38.4 µM
same,GI50,[50],16 µM
same,TGI,[50],36.9 µM
same,GI50,[51],16.2 µM
same,TGI,[51],41.8 µM
same,GI50,[52],16.3 µM
same,TGI,[52],36.5 µM
same,GI50,[53],22.9 µM
same,TGI,[53],81.4 µM
same,GI50,[54],15 µM
same,TGI,[54],31.7 µM
same,GI50,[55],5.87 µM
same,TGI,[55],25.6 µM
same,GI50,[56],17.5 µM
same,TGI,[56],34.7 µM
same,GI50,[57],15.4 µM
same,TGI,[57],34.2 µM
same,GI50,[58],5.9 µM
same,TGI,[58],21.3 µM
same,GI50,[59],15 µM
same,TGI,[59],43.2 µM
